Data: patent US4731109A, “Herbicidal 2-haloacetanilides” (Monsanto Company, priority 1982, dated 1988)
Read-outs that look alike come from different tables or passages of the source.

Assays:
Type in all cases: in vivo
[1] = tested on: redroot pigweed; assay: Greenhouse pre-emergence GR15/GR85 selectivity test; conditions: Table XV
Outline: (§1)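 Pre-emergence soil-incorporation test: seeded pans were covered with topsoil mixed with active ingredient (in solvent or as wettable powder), overhead-irrigated (0.64 cm) or not, then subirrigated. Plants were scored about 2-3 weeks after treatment. GR15/GR85 rates are in kg/ha, and selectivity factor is crop GR15 divided by weed GR85.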

[2] = tested on: prickly sida; assay: as above; conditions: Table XV
Outline: as §1

[3] = tested on: common ragweed; assay: as above; conditions: Table XV
Outline: as §1

[4] = tested on: common purslane; assay: as above; conditions: Table XV
Outline: as §1

[5] = tested on: lima beans; assay: as above; conditions: Table XVI
Source text: (§2) A good grade of top soil is placed in aluminum pans and compacted to a depth of three-eighths to one-half inch from the top of the pan. On the top of the soil is placed a number of seeds or vegetative propagules of various plant species. The soil required to level fill the pans after seeding or adding vegetative propagules is weighed into a pan. The soil and a known amount of the active ingredient applied in a solvent or as a wettable powder suspension are thoroughly mixed, and used to cover the prepared pans. After treatment, the pans are given an initial overhead irrigation of eater, equivalent to one-fourth inch (0.64 cm) rainfall, then watered by subirrigation as need to give adequate moisture for germination and growth. As an alternative procedure, the overhead irrigation may be omitted. Observations are made about 2-3 weeks after seeding and treatment.
(§3) In the discussion and tables of data below, reference is made to herbicide application rates symbolized as "GR15 " and "GR85 "; these rates are given in kilograms per hectare (kg/ha) which are convertible into pounds per acre (lbs/A) by dividing the kg/ha rate by 1.12.
(§4) A further guide to the effectiveness of a chemical as a selective herbicide is the "selectivity factor" ("SF") for a herbicide in given crops and weeds. The selectivity factor is a measure of the relative degree of crop safety and weed injury and is expressed in terms of the GR15 /GR85 ratio, i.e., the GR15 rate for the crop divided by the GR85 rate for the weed, both rates in kg/ha (lb/A). In the tables below, selectivity factors are shown in parenthesis following the GR85 rate for each weed; the symbol "NS" indicates "non-selective". Marginal or undetermined selectivity is indicated by a dash (--).
(§5) Additionally, pre-emergence herbicidal data from other tests have established that compounds according to this invention also selectively suppress quackgrass, yellow nutsedge and/or other weeds in one or more of the crops cotton, peanuts, bush beans and/or rape. For example, in Table VI are presented data showing the herbicidal selectivity of the compounds of Examples 1 and 2 against quackgrass in rape and snap beans. Unless otherwise noted; greenhouse tests in Table VI and in other tables below involved herbicide treatments by soil incorporation and an initial overhead irrigation followed by subirrigation as described above.
(§6) Additional greenhouse tests were made to test certain compounds of this invention against a plurality of problem weeds in peanuts and lima beans; except for fall panicum, the test weeds are particularly resistant weeds; the test data is set forth in Table XVI.
(§7) In Table XVI, the selectivity factors for the test compounds for each weed in lima beans is shown as the first or upper value in parenthesis and the selectivity factors for each weed in peanuts is shown as the second or lower value in parenthesis for each compound. For example, the selectivity factor for the compound of Example 3 for seedling johnsongrass in lima beans is 2.1 and in peanuts, >4.9; the selectivity factor for Texas panicum in lima beans is 1.1 and in peanuts, >2.6, etc.

[6] = tested on: peanuts; assay: as above; conditions: Table XVI
Source text: as §2, §3, §4, §5, §6, §7

[7] = tested on: purple nutsedge; assay: as above
Source text: as §2, §3, §4, §5
In other greenhouse tests, compounds according to this invention have shown selective control of a variety of annual and perennial weeds in various crops. As further illustrative, the compound of Example 1 selectively controlled purple nutsedge in both corn nd soybeans, the respective crop/weed GR15 /GR85 ratios (expressed in kg/ha) being 0.67/0.25 (S.F.=2.7) in corn and 1.1/0.25 (S.F.=4.5) in soybeans. The compound of Example 8 has shown selective control of yellow nutsedge and quackgrass in corn and soybeans. The respective crop/yellownutsedge GR15 /GR85 ratios being >2.2/0.95 (S.F.=2.5) in corn; 2.2/0.5 (SF=4.5) in soybeans and the respective GR15 /GR85 ratios for both corn and soybeans in quackgrass being >2.2/0.5 (S.F.=4.5). In a test against yellow nutsedge in cotton, the GR15 /GR85 ratio (average of two replicates) was 2.0/0.95 (S.F.=2).
In another greenhouse test, the compounds of Examples 3-5, 9 and 10 were tested for their herbicidal efficacy against a variety of resistant annual and perennial weeds in rape.

[8] = tested on: Barnyardgrass; assay: Resistance to leaching and resulting herbicidal efficacy; conditions: for inhibition at 140 g/ha / inhibition at 560 g/ha / inhibition at 2200 g/ha: Echinochloa crus-galli, read-out: Percent Inhibition
Description: Laboratory tests were conducted to determine the resistance of herbicides according to this invention to leaching into the soil and resulting herbicidal efficacy. […] The pots containing the treated soil were subjected to leaching by placing on a turntable which rotated under two nozzle tips of a water container calibrated to deliver one inch (2.5 cm) of water per hour simulating rainfall. Leaching rates were adjusted by varying the amount of time on the turntable. Water was delivered to the soil in the pots and allowed to percolate through the filter paper and drainage holes. The pots were then allowed to sit for three days at ambient room temperature. The treated soil in the pots was then removed, crumbled and placed as a surface layer on top of other pots containing the above soils seeded with barnyardgrass seeds. The pots were then placed on greenhouse benches, sub-irrigated and allowed to grow for 2-3 weeks. Visual ratings of percent growth inhibition compared to control (untreated) pots and fresh weights for barnyardgrass were recorded; the data from the control represents six replications and that for the test compounds three replications; test data are shown in Table XVIII.

[9] = Ray silt loam, 0.14 Kg/Ha, rain 0 cm
[10] = Ray silt loam, 0.14 Kg/Ha, rain 1.27 cm
[11] = Ray silt loam, 0.14 Kg/Ha, rain 5.08 cm
[12] = Ray silt loam, 0.56 Kg/Ha, rain 0 cm
[13] = Ray silt loam, 0.56 Kg/Ha, rain 1.27 cm
[14] = Ray silt loam, 0.56 Kg/Ha, rain 5.08 cm
[15] = Ray silt loam, 0.56 Kg/Ha, rain 10.16 cm
[16] = Ray silt loam, 2.2 Kg/Ha, rain 0 cm
[17] = Ray silt loam, 2.2 Kg/Ha, rain 1.27 cm
[18] = Ray silt loam, 2.2 Kg/Ha, rain 5.08 cm
[19] = Ray silt loam, 2.2 Kg/Ha, rain 10.16 cm
[20] = Ray silt loam, 0.14 Kg/Ha, rain 10.16 cm

In the case of `CCOCN(C(=O)CCl)c1c(CC)cccc1C(F)(F)F` [Example 9, N--(ethoxymethyl)-2'-trifluoromethyl-6'-ethyl-2-chloroacetanilide], the “GR85 Rate” value [1] is reported as 0.70 Kg/Ha, the “selectivity factor (GR15/GR85)” value ([1]; in rape) is reported as 1.4 and the “GR85 Rate” value [2] is reported as over 1.12 Kg/Ha. The “selectivity factor (GR15/GR85)” value ([2]; in rape) was “NS (non-selective)”, the “GR85 Rate” value [3] was over 1.12 Kg/Ha and the “selectivity factor (GR15/GR85)” value ([3]; in rape) was “NS (non-selective)”. For the same compound, the “GR85 Rate” value [4] was 0.78 Kg/Ha, the “selectivity factor (GR15/GR85)” value ([4]; in rape) was 1.3 and the “GR15 Rate” value [5] was 0.75 Kg/Ha. The “GR15 Rate” value [6] was 0.90 Kg/Ha, the “GR85 Rate” value ([7]; Table XV) was 0.19 Kg/Ha and the “selectivity factor (GR15/GR85)” value ([7]; in rape, Table XV) was 5.2.

`CCOCN(C(=O)CCl)c1c(C)cccc1C(F)(F)F` [Example 1, N-(ethoxymethyl)-2'-trifluoromethyl-6'-methyl-2-chloroacetanilide] was tested, and the GR85 ([7]; in corn) was 0.25 kg/ha, the “S.F. (GR15/GR85)” value ([7]; in corn) was 2.7 and the GR85 ([7]; in soybeans) was 0.25 kg/ha. The “S.F. (GR15/GR85)” value ([7]; in soybeans) was 4.5, the inhibition at 140 g/ha ([8]; Drummer silt clay, 0.14 Kg/Ha, rain 0 cm) was 100% and the inhibition at 140 g/ha ([8]; Drummer silt clay, 0.14 Kg/Ha, rain 1.27 cm) was 97%. The inhibition at 140 g/ha ([8]; Drummer silt clay, 0.14 Kg/Ha, rain 5.08 cm) was 95%, the inhibition at 140 g/ha ([8]; Drummer silt clay, 0.14 Kg/Ha, rain 10.16 cm) was 20% and the inhibition at 560 g/ha ([8]; Drummer silt clay, 0.56 Kg/Ha, rain 0 cm) was 100%. For the same compound, the inhibition at 560 g/ha ([8]; Drummer silt clay, 0.56 Kg/Ha, rain 1.27 cm) was 100%, the inhibition at 560 g/ha ([8]; Drummer silt clay, 0.56 Kg/Ha, rain 5.08 cm) was 100% and the inhibition at 560 g/ha ([8]; Drummer silt clay, 0.56 Kg/Ha, rain 10.16 cm) was 100%. The inhibition at 2200 g/ha ([8]; Drummer silt clay, 2.2 Kg/Ha, rain 0 cm) was 100%, the inhibition at 2200 g/ha ([8]; Drummer silt clay, 2.2 Kg/Ha, rain 1.27 cm) was 100% and the inhibition at 2200 g/ha ([8]; Drummer silt clay, 2.2 Kg/Ha, rain 5.08 cm) was 100%. The inhibition at 2200 g/ha ([8]; Drummer silt clay, 2.2 Kg/Ha, rain 10.16 cm) was 100%, the inhibition at 140 g/ha [8, 9] was 95% and the inhibition at 140 g/ha [8, 10] was 96%. The inhibition at 140 g/ha [8, 11] was 58%, the inhibition at 560 g/ha [8, 12] was 100% and the inhibition at 560 g/ha [8, 13] was 100%. It also gave an inhibition at 560 g/ha [8, 14] of 70%, an inhibition at 560 g/ha [8, 15] of 33% and an inhibition at 2200 g/ha [8, 16] of 100%. For the same compound, the inhibition at 2200 g/ha [8, 17] was 100%, the inhibition at 2200 g/ha [8, 18] was 95% and the inhibition at 2200 g/ha [8, 19] was 35%. The inhibition at 140 g/ha [8, 20] was 20%, the “Fresh Weight” value [8, 9] was 0.20 Grams and the “Fresh Weight” value [8, 10] was 0.17 Grams. The “Fresh Weight” value [8, 11] was 1.74 Grams, the “Fresh Weight” value [8, 20] was 3.26 Grams and the “Fresh Weight” value [8, 12] was 0 Grams. For the same compound, the “Fresh Weight” value [8, 13] was 0 Grams, the “Fresh Weight” value [8, 14] was 1.21 Grams and the “Fresh Weight” value [8, 15] was 2.73 Grams. For the same compound, the “Fresh Weight” value [8, 16] was 0 Grams, the “Fresh Weight” value [8, 17] was 0 Grams and the “Fresh Weight” value [8, 18] was 0.20 Grams. The “Fresh Weight” value [8, 19] was 2.65 Grams.
